# According to patent US9289468B2, “Fusion protein comprising circularly permuted form of trail/Apo2L, coding gene and use thereof” (Beijing Sunbio Biotech Co. Ltd., priority 2011, dated 2016):
# Tested on: human multiple myeloma cell line U266
# Assay: Combination with melphalan, cell survival (ATPlite)
# Assay type: cell-based
# Description: FIG. 9. […] U266 cells are insensitive to CPT. At the concentration of 1 μg/ml, NCPT-1.M1 alone has a mild killing effect on U266 (<20%), but with the presence of melphalan (12.5˜50 μg/ml), both of them can cause enhanced killing effect. The cell viability was assayed with ATPlite luminescent system (PerkinElmer), the data as shown in this figure are all represented as the mean±standard deviation, n=4, #P<0.05, ##P<0.01 vs. melphalan group; *P<0.05 vs. NCPT-1.M1 group.
molecule,measurement,setting,value
"N[C@@H](Cc1ccc(N(CCCl)CCCl)cc1)C(=O)O [melphalan, reference compound]","cell survival rate, melphalan alone","melphalan 12.5˜50 μg/ml, 48 h, U266B1",11.9˜100.9%
"CPT: recombinant human circularly permuted TRAIL: amino acids 135-281, a linker, amino acids 122-135; SEQ ID NO: 1 (protein, CPT polypeptide sequence) TLSSPNSKNEKALGRKINSWESSRSGHSFLSNLHLRNGELVIHEKGFYYIYSQTYFRFQEEIKENTKNDKQMVQYIYKYTSYPDPILLMKSARNSCWSKDAEYGLYSIYQGGIFELKENDRIFVSVTNEHLIDMDHEASFFGAFLVGGGGGGVAAHITGTRGRSNT",sensitivity of the cell line,U266 / U266B1,insensitive
